One block for each molecule: values may come before it.
Assays:
[1] = target: T1, Solute carrier family 2, facilitated glucose transporter member 1 (Homo sapiens, UniProt P11166); experiment: Substrate activity at GLUT1 in human A549 cells assessed cellular uptake at 20 uM after 8 hrs by HPLC analysis relative to control; assay type: ADME, cell-based; conditions: a549, 8 h
T1 sequence (P11166 whole entry): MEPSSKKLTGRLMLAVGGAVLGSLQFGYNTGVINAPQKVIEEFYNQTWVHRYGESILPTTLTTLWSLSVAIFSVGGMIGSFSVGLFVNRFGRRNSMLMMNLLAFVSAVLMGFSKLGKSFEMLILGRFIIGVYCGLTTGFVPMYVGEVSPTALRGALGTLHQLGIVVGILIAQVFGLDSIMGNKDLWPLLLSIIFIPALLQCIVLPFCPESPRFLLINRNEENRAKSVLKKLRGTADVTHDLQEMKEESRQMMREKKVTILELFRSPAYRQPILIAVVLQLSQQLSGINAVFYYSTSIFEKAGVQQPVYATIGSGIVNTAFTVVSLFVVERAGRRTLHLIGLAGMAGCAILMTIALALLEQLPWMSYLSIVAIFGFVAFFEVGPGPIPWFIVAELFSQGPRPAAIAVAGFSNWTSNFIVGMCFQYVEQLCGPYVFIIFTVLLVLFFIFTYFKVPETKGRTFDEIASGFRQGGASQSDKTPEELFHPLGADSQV

A549 [2] = experiment: Induction of apoptosis in human A549 cells assessed as early apoptotic cells at 24 uM after 48 hrs by annexin V-FITC/propidium iodide staining-based flow cytometric method (reference value: 3.87%); assay type: functional
A549 [3] = experiment: Induction of apoptosis in human A549 cells assessed as late apoptotic cells at 8 uM after 48 hrs by annexin V-FITC/propidium iodide staining-based flow cytometric method (reference value: 2.39%); assay type: functional
A549 [4] = experiment: Antiproliferative activity against human A549 cells after 48 hrs by MTT assay; assay type: functional, cell-based; conditions: A549, 48 h
[5] = target: T1, Solute carrier family 2, facilitated glucose transporter member 1; experiment: Substrate activity at GLUT1 in human A549 cells assessed cellular uptake at 20 uM after 8 hrs in presence of 100 mM D-glucose by HPLC analysis relative to control; assay type: ADME, cell-based; conditions: a549, 8 h
A549 [6] = experiment: Induction of apoptosis in human A549 cells assessed as early apoptotic cells at 16 uM after 48 hrs by annexin V-FITC/propidium iodide staining-based flow cytometric method (reference value: 3.87%); assay type: functional
[7] = target: T1, Solute carrier family 2, facilitated glucose transporter member 1; experiment: Substrate activity at GLUT1 in human A549 cells assessed cellular uptake at 20 uM after 8 hrs in presence of 50 mM D-glucose by HPLC analysis relative to control; assay type: ADME, cell-based; conditions: a549, 8 h
A549 [8] = experiment: Induction of apoptosis in human A549 cells assessed as late apoptotic cells at 16 uM after 48 hrs by annexin V-FITC/propidium iodide staining-based flow cytometric method (reference value: 2.39%); assay type: functional
A549 [9] = experiment: Induction of apoptosis in human A549 cells assessed as live cells at 24 uM after 48 hrs by annexin V-FITC/propidium iodide staining-based flow cytometric method (reference value: 93.6%); assay type: functional
A549 [10] = experiment: Cell cycle arrest in human A549 cells assessed as accumulation at G0/G1 phase at 24 uM after 48 hrs by propidium iodide staining based flow cytometric analysis (reference value: 42.86%); assay type: functional
A549 [11] = experiment: Potency index, ratio of gefitinib IC50 to compound IC50 against human A549 cells; assay type: functional
A549 [12] = experiment: Induction of apoptosis in human A549 cells assessed as necrotic cells at 8 uM after 48 hrs by annexin V-FITC/propidium iodide staining-based flow cytometric method (reference value: 0.13%); assay type: functional
A549 [13] = experiment: Cell cycle arrest in human A549 cells assessed as accumulation at S phase at 8 uM after 48 hrs by propidium iodide staining based flow cytometric analysis (reference value: 54.85%); assay type: functional
A549 [14] = experiment: Cell cycle arrest in human A549 cells assessed as accumulation at G2/M phase at 8 uM after 48 hrs by propidium iodide staining based flow cytometric analysis (reference value: 2.29%); assay type: functional
A549 [15] = experiment: Cell cycle arrest in human A549 cells assessed as accumulation at G2/M phase at 24 uM after 48 hrs by propidium iodide staining based flow cytometric analysis (reference value: 2.29%); assay type: functional
A549 [16] = experiment: Induction of apoptosis in human A549 cells assessed as necrotic cells at 24 uM after 48 hrs by annexin V-FITC/propidium iodide staining-based flow cytometric method (reference value: 0.13%); assay type: functional
A549 [17] = experiment: Cell cycle arrest in human A549 cells assessed as accumulation at G0/G1 phase at 16 uM after 48 hrs by propidium iodide staining based flow cytometric analysis (reference value: 42.86%); assay type: functional
A549 [18] = experiment: Induction of apoptosis in human A549 cells assessed as live cells at 16 uM after 48 hrs by annexin V-FITC/propidium iodide staining-based flow cytometric method (reference value: 93.6%); assay type: functional
A549 [19] = experiment: Cell cycle arrest in human A549 cells assessed as accumulation at G0/G1 phase at 8 uM after 48 hrs by propidium iodide staining based flow cytometric analysis (reference value: 42.86%); assay type: functional
A549 [20] = experiment: Induction of apoptosis in human A549 cells after 48 hrs by annexin V-FITC/propidium iodide staining-based flow cytometric method; assay type: functional, cell-based
A549 [21] = experiment: Induction of apoptosis in human A549 cells assessed as live cells at 8 uM after 48 hrs by annexin V-FITC/propidium iodide staining-based flow cytometric method (reference value: 93.6%); assay type: functional
A549 [22] = experiment: Induction of apoptosis in human A549 cells assessed as late apoptotic cells at 24 uM after 48 hrs by annexin V-FITC/propidium iodide staining-based flow cytometric method (reference value: 2.39%); assay type: functional
A549 [23] = experiment: Antimigratory activity against human A549 cells assessed as reduction in cell migration towards wound area after 48 hrs by phase contrast microscopic method; assay type: functional, cell-based
HeLa = experiment: Antiproliferative activity against human HeLa cells after 48 hrs by MTT assay; assay type: functional, cell-based
[24] = Antiproliferative activity against human U87 cells after 48 hrs by MTT assay; assay type: functional, cell-based, U-87MG ATCC; conditions: U-87 MG
HepG2 = experiment: Antiproliferative activity against human HepG2 cells after 48 hrs by MTT assay; assay type: functional, cell-based; conditions: HepG2, 48 h
[25] = target: T1, Solute carrier family 2, facilitated glucose transporter member 1; experiment: Substrate activity at GLUT1 in human A549 cells assessed cellular uptake at 20 uM after 8 hrs in presence of 100 mM GLUT1 inhibitor EDG by HPLC analysis relative to control; assay type: ADME, cell-based; conditions: a549, 8 h
A549 [26] = experiment: Induction of apoptosis in human A549 cells assessed as early apoptotic cells at 8 uM after 48 hrs by annexin V-FITC/propidium iodide staining-based flow cytometric method (reference value: 3.87%); assay type: functional
[27] = target: T1, Solute carrier family 2, facilitated glucose transporter member 1; experiment: Substrate activity at GLUT1 in human A549 cells assessed cellular uptake at 20 uM after 8 hrs in presence of 50 mM GLUT1 inhibitor EDG by HPLC analysis relative to control; assay type: ADME, cell-based; conditions: a549, 8 h
A549 [28] = experiment: Cell cycle arrest in human A549 cells assessed as accumulation at S phase at 16 uM after 48 hrs by propidium iodide staining based flow cytometric analysis (reference value: 54.85%); assay type: functional
A549 [29] = experiment: Induction of apoptosis in human A549 cells assessed as necrotic cells at 16 uM after 48 hrs by annexin V-FITC/propidium iodide staining-based flow cytometric method (reference value: 0.13%); assay type: functional
A549 [30] = experiment: Cell cycle arrest in human A549 cells assessed as accumulation at G2/M phase at 16 uM after 48 hrs by propidium iodide staining based flow cytometric analysis (reference value: 2.29%); assay type: functional
A549 [31] = experiment: Cell cycle arrest in human A549 cells assessed as accumulation at S phase at 24 uM after 48 hrs by propidium iodide staining based flow cytometric analysis (reference value: 54.85%); assay type: functional
A549 [32] = experiment: Cell cycle arrest in human A549 cells assessed as accumulation at G0/G1 phase after 48 hrs by propidium iodide staining based flow cytometric analysis; assay type: functional

Drug uptake [1]: Not Active
SMILES: COc1cc(COC(C)C)c(Br)c(Br)c1O

IC50 (A549 [4]): 11.4 µM
Drug uptake [5]: 49.1%
Drug uptake [7]: 51.6%
Drug uptake [1]: 60.3%
IC50 (HeLa): 19.3 µM
IC50 (HepG2): 14.7 µM
Drug uptake [25]: 34.6%
Drug uptake [27]: 42.1%
SMILES: COc1cc(COC(C)C)c(Br)c(Br)c1OCCCO[C@@H]1O[C@H](CO)[C@@H](O)[C@H]1O
Activity (A549 [2]): 13.7%
Activity (A549 [3]): 3.75%
Activity (A549 [6]): 7.66%
Activity (A549 [8]): 3.91%
Activity (A549 [9]): 81.8%
Activity (A549 [10]): 89.56%
Ratio IC50 (A549 [11]): 2
Activity (A549 [12]): 0.24%
Activity (A549 [13]): 40.83%
Activity (A549 [14]): 0%
Activity (A549 [15]): 0.19%
Activity (A549 [16]): 0.15%
Activity (A549 [17]): 76.56%
Activity (A549 [18]): 88.1%
Activity (A549 [19]): 59.17%
Activity (A549 [20]): Dose-dependent effect
Activity (A549 [21]): 91.8%
Activity (A549 [22]): 4.35%
Activity (A549 [23]): Dose-dependent effect
IC50 [24]: 11.3 µM
Activity (A549 [26]): 4.18%
Activity (A549 [28]): 23.44%
Activity (A549 [29]): 0.32%
Activity (A549 [30]): 0%
Activity (A549 [31]): 10.25%
Activity (A549 [32]): Dose-dependent effect

IC50 (A549 [4]): 23.6 µM
IC50 (HeLa): 20.4 µM
IC50 (HepG2): 18.8 µM
SMILES: COc1cc(CO)c(Br)c(Br)c1OCCCO[C@@H]1O[C@H](CO)[C@@H](O)[C@H]1O
IC50 [24]: 11.2 µM
